Target: human activated kallikrein enzyme (Homo sapiens, UniProt P03952)
Experiment: Plasma kallikrein inhibition, fluorogenic PFR-AMC substrate, 500 pM activated kallikrein format
Assay type: biochemical
Conditions: 500 pM activated kallikrein, 300 uM PFR-AMC, 30 min preincubation, 10 min reaction; read-out: Primary Dose Response Assay: Average EC50
Procedure: Compounds were evaluated for inhibition of the human activated kallikrein enzyme in two formats of an assay employing a fluorogenic peptide substrate. In one assay format, the concentrations of reagents were as follows: 20 mM Tris pH 7.5, 1 mM EDTA, 150 mM sodium chloride, 0.1% PEG-400, 0.1% Triton X-100, 500 pM activated kallikrein enzyme, 300 uM Pro-Phe-Arg-7-amido-4-methylcoumarin (PFR-AMC) substrate. Prior to reaction initiation with substrate, enzyme and inhibitors were preincubated for 30 min at room temperature. After initiation with substrate, reactions were incubated for 10 min at room temperature and fluorescence emission at 460 nm from 380 nm excitation measured with a microplate reader. In another assay format, the concentrations of reagents were as follows: 20 mM Tris pH 7.5, 1 mM EDTA, 150 mM sodium chloride, 0.1% PEG-400, 0.1% Triton X-100, 5 pM activated kallikrein enzyme, 300 uM PFR-AMC substrate. Prior to reaction initiation with substrate, enzyme and inhibitors were preincubated for 30 min at room temperature. After initiation with substrate, reactions were incubated for 18 hr at room temperature and fluorescence emission at 460 nm from 380 nm excitation measured with a microplate reader.
Table 49 provides the results of the assay in the format with 500 pM activated kallikrein assay. For the compounds listed in Table 49, the EC50 values are reported according to the following ranges: A≤1.0 nM; 1.0 nM<B≤10 nM; 10 nM<C≤100 nM; 100 nM<D≤1000 nM; 1000 nM<E≤6000 nM; 6000 nM<F.
Table 51 provides comparative plasma kallikrein inhibition potency in the assay format with 500 pM activated kallikrein assay (described in detail in a preceding example). For the compounds listed in Table 51, the EC50 values are reported according to the following ranges: A≤1.0 nM; 1.0 nM<B≤10 nM; 10 nM<C≤100 nM; 100 nM<D≤1000 nM; 1000 nM<E≤6000 nM; 6000 nM<F.

Chain of human activated kallikrein enzyme (P03952 391-638 limits assumed): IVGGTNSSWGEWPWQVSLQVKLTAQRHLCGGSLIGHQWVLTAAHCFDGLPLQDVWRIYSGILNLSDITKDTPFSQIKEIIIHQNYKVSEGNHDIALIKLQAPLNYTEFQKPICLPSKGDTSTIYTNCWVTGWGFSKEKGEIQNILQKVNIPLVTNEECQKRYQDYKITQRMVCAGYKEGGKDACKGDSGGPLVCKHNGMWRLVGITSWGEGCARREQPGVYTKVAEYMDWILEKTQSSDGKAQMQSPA
Chain of human activated kallikrein enzyme (P03952 20-390 partner limits assumed): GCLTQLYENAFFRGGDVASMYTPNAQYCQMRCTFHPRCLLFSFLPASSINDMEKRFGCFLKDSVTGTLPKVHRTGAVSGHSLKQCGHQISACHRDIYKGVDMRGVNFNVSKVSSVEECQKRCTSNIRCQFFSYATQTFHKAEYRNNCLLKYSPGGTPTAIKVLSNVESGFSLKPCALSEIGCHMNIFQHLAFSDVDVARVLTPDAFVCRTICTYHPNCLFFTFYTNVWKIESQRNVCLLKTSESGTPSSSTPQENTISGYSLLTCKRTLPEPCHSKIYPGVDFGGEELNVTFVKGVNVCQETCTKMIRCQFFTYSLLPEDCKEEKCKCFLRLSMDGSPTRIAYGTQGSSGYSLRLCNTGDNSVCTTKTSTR

| EC50 [nM] | SMILES |
| --- | --- |
| 1 to 10 | O=C(Nc1cc(NCc2cn3cc(C4CC4)cc(N4CC(F)(F)C4)c3n2)ccn1)[C@H]1C[C@@H]1c1cccc(Cl)c1 [Example 124, (1S,2S)-2-(3-chlorophenyl)-N-(4-(((6-cyclopropyl-8-(3,3-difluoroazetidin-1-yl)imidazo[1,2-a]pyridin-2-yl)methyl)amino)pyridin-2-yl)cyclopropane-1-carboxamide] |
| < 1 | Cc1ccnc([C@H]2C[C@@H]2C(=O)Nc2cccc(NCc3cn4cc(C5CC5)cc(N5CC(=O)N(C)C5=O)c4n3)c2)n1 [Example I-644, (1S,2S)—N-(3-(((6-cyclopropyl-8-(3-methyl-2,4-dioxoimidazolidin-1-yl)imidazo[1,2-a]pyridin-2-yl)methyl)amino)phenyl)-2-(4-methylpyrimidin-2-yl)cyclopropane-1-carboxamide] |
| 10 to 100 | O=C(Nc1cc(NCc2cn3cc(C4CC4)ccc3n2)ccn1)[C@H]1C[C@@H]1c1cc(Cl)ccn1 (single isomer, unassigned) [Example I-269, rac-(1S*,2S*)-2-(4-chloropyridin-2-yl)-N-(4-(((6-cyclopropylimidazo[1,2-a]pyridin-2-yl)methyl)amino)pyridin-2-yl)cyclopropane-1-carboxamide] |
| 1 to 10 | O=C(NCc1cn(Cc2cn3cc(C4CC4)cc(-n4cnnc4)c3n2)nn1)[C@H]1C[C@@H]1c1cccc(Cl)c1 [Example 591, (1S,2S)-2-(3-chlorophenyl)-N-((1-((6-cyclopropyl-8-(4H-1,2,4-triazol-4-yl)imidazo[1,2-a]pyridin-2-yl)methyl)-1H-1,2,3-triazol-4-yl)methyl)cyclopropane-1-carboxamide] |
| > 6000 | O=C(Nc1cn(Cc2cn3cc(C4CC4)ccc3n2)nn1)[C@H]1C[C@@H]1c1cccc(Cl)c1 (racemic) [Example 593, rac-(1S*,2S*)-2-(3-chlorophenyl)-N-(1-((6-cyclopropylimidazo[1,2-a]pyridin-2-yl)methyl)-1H-1,2,3-triazol-4-yl)cyclopropane-1-carboxamide] |
| 100 to 1000 | O=C(Nc1cc(Cc2cn3cc(C4CC4)ccc3n2)ncn1)[C@H]1C[C@@H]1c1cccc(Cl)c1 (racemic) [Example 587, rac-(1S*,2S*)-2-(3-chlorophenyl)-N-(6-((6-cyclopropylimidazo[1,2-a]pyridin-2-yl)methyl)pyrimidin-4-yl)cyclopropane-1-carboxamide] |
| < 1 | Cc1ccnc([C@H]2C[C@@H]2C(=O)Nc2cc(N[C@H](C)c3cn4cc(C5CC5)cc(N5CC(=O)NC5=O)c4n3)nc(C)n2)n1 [Example 532, (1S,2S)-N-(6-(((R)-1-(6-cyclopropyl-8-(2,4-dioxoimidazolidin-1-yl)imidazo[1,2-a]pyridin-2-yl)ethyl)amino)-2-methylpyrimidin-4-yl)-2-(4-methylpyrimidin-2-yl)cyclopropane-1-carboxamide] |
| 10 to 100 | Cc1ccnc([C@H]2C[C@@H]2C(=O)Nc2cc(N[C@@H](C)c3cn4cc(C5CC5)cc(N5CC(=O)N(C)C5=O)c4n3)nc(C)n2)n1 [Example 455, (1S,2S)—N-(6S-((1-(6-cyclopropyl-8-(3-methyl-2,4-dioxoimidazolidin-1-yl)imidazo[1,2-a]pyridin-2-yl)ethyl)amino)-2-methylpyrimidin-4-yl)-2-(4-methylpyrimidin-2-yl)cyclopropane-1-carboxamide] |
| < 1 | Cc1ccnc([C@H]2C[C@@H]2C(=O)Nc2ccc(F)c(OCc3cn4cc(C5CC5)cc(N5CC(=O)N(C)C5=O)c4n3)c2)n1 [Example 657, (1S,2S)—N-(3-((6-cyclopropyl-8-(3-methyl-2,4-dioxoimidazolidin-1-yl)imidazo[1,2-a]pyridin-2-yl)methoxy)-4-fluorophenyl)-2-(4-methylpyrimidin-2-yl)cyclopropane-1-carboxamide] |
| 1 to 10 | Nc1cc(Cl)cc([C@H]2C[C@@H]2C(=O)Nc2cc(NCc3cn4cc(C5CC5)ccc4n3)ncn2)c1 (single isomer, unassigned) [Example I-257, rac-(1S*,2S*)-2-(3-amino-5-chlorophenyl)-N-(6-(((6-cyclopropylimidazo[1,2-a]pyridin-2-yl)methyl)amino)pyrimidin-4-yl)cyclopropane-1-carboxamide] |
| 10 to 100 | O=C(Nc1cc(NCc2cn3cc(Cl)ccc3n2)ncn1)[C@H]1C[C@@H]1c1cccc(Cl)c1 [Example I-203, (1S,2S)-N-(6-(((6-chloroimidazo[1,2-a]pyridin-2-yl)methyl)amino)pyrimidin-4-yl)-2-(3-chlorophenyl)cyclopropane-1-carboxamide] |
| 1 to 10 | C#Cc1cccc([C@H]2C[C@@H]2C(=O)Nc2cc(N3C[C@@H](O)C[C@@H]3c3cn4cc(C5CC5)ccc4n3)ncn2)c1 [Example 486, (1S,2S)-N-(6-((2R,4S)-2-(6-cyclopropylimidazo[1,2-a]pyridin-2-yl)-4-hydroxypyrrolidin-1-yl)pyrimidin-4-yl)-2-(3-ethynylphenyl)cyclopropane-1-carboxamide] |
| 1 to 10 | N#Cc1cc(Cl)sc1[C@H]1C[C@@H]1C(=O)Nc1cc(NCc2cn3cc(C4CC4)ccc3n2)ccn1 (racemic) [Example I-212, rac-(1S*,2S*)-2-(5-chloro-3-cyanothiophen-2-yl)-N-(4-(((6-cyclopropylimidazo[1,2-a]pyridin-2-yl)methyl)amino)pyridin-2-yl)cyclopropane-1-carboxamide] |
| 1 to 10 | O=C(Nc1cc(NCc2cn3cc(C4CC4)ccc3n2)ncn1)[C@H]1C[C@@H]1c1cc(Cl)ccn1 (racemic) [Example I-265, rac-(1S*,2S*)-2-(4-chloropyridin-2-yl)-N-(6-(((6-cyclopropylimidazo[1,2-a]pyridin-2-yl)methyl)amino)pyrimidin-4-yl)cyclopropane-1-carboxamide] |
| 10 to 100 | Cc1ccnc([C@H]2C[C@@H]2C(=O)Nc2cc(N[C@@H](C)c3cn4cc(C(F)F)cc(N5CC(=O)N(C)C5=O)c4n3)ncn2)n1 [Example 416, (1S,2S)-N-(6-(((S)-1-(6-(difluoromethyl)-8-(3-methyl-2,4-dioxoimidazolidin-1-yl)imidazo[1,2-a]pyridin-2-yl)ethyl)amino)pyrimidin-4-yl)-2-(4-methylpyrimidin-2-yl)cyclopropane-1-carboxamide] |
| > 6000 | O=C(Nc1cc(N2CC[C@H](O)[C@H]2c2cn3cc(C4CC4)ccc3n2)ncn1)[C@H]1C[C@@H]1c1cccc(Cl)c1 [Example 484, (1S,2S)-2-(3-chlorophenyl)-N-(6-((2R,3S)-2-(6-cyclopropylimidazo[1,2-a]pyridin-2-yl)-3-hydroxypyrrolidin-1-yl)pyrimidin-4-yl)cyclopropane-1-carboxamide] |
| < 1 | Cc1ccnc([C@H]2C[C@@H]2C(=O)Nc2cc(CCc3cn4cc(C5CC5)cc(N5CC(=O)N(C)C5=O)c4n3)ccn2)n1 [Example I-653, (1S,2S)—N-(4-(2-(6-cyclopropyl-8-(3-methyl-2,4-dioxoimidazolidin-1-yl)imidazo[1,2-a]pyridin-2-yl)ethyl)pyridin-2-yl)-2-(4-methylpyrimidin-2-yl)cyclopropane-1-carboxamide] |
| < 1 | CCOC(=O)c1cnc(NC(=O)[C@H]2C[C@@H]2c2nccc(C)n2)nc1OCc1cn2cc(C3CC3)cc(N3CC(=O)N(C)C3=O)c2n1 [Example I-654, ethyl 4-((6-cyclopropyl-8-(3-methyl-2,4-dioxoimidazolidin-1-yl)imidazo[1,2-a]pyridin-2-yl)methoxy)-2-((1S,2S)-2-(4-methylpyrimidin-2-yl)cyclopropane-1-carboxamido)pyrimidine-5-carboxylate] |
| 10 to 100 | Cc1ccnc([C@H]2C[C@@H]2C(=O)Nc2cc(N[C@@H](C)c3cn4cc(C5CC5)cc(N5CC(=O)N(C)C5=O)c4n3)ncn2)n1 (single isomer, unassigned) [Example 452] |
| < 1 | Cc1ccnc([C@H]2C[C@@H]2C(=O)Nc2cc(N[C@H](C)c3cn4cc(C5(F)CC5)cc(N5CC(=O)N(C)C5=O)c4n3)nc(C)n2)n1 [Example 436, (1S,2S)-N-(6-(((R)-1-(6-(1-fluorocyclopropyl)-8-(3-methyl-2,4-dioxoimidazolidin-1-yl)imidazo[1,2-a]pyridin-2-yl)ethyl)amino)-2-methylpyrimidin-4-yl)-2-(4-methylpyrimidin-2-yl)cyclopropane-1-carboxamide] |
| 1 to 10 | O=C(Nc1cc(NCc2cn3cc(C4CC4)cc(N4CCC(O)CC4)c3n2)ncn1)[C@H]1C[C@@H]1c1cccc(Cl)c1 (stereo in doubt) [Example I-3, (1S,2S)-2-(3-chlorophenyl)-N-(6-(((6-cyclopropyl-8-(4-hydroxypiperidin-1-yl)imidazo[1,2-a]pyridin-2-yl)methyl)amino)pyrimidin-4-yl)cyclopropane-1-carboxamide] |

— patent US20240228488A1 (TAKEDA PHARMACEUTICAL COMPANY LIMITED, priority 2021, published 2024)
